≈ marks a conversion by molar mass, not a printed value. Like-named read-outs stand apart in the source and are kept apart here.
Experiments:
[1] = Figure 1, cited from earlier work
[2] = DPPH radical scavenging antioxidant assay; type: biochemical; conditions: Table 1; mean ± SD, n = 3; 517 nm after 20 min
Method: In DPPH radical scavenging method the plant extract (0.75 mL) at different concentrations ranging from 10 to 100 μg mL^−1 was mixed with 1.5 mL of a DPPH methanolic solution (20 mg L^−1). Pure methanol was taken as control and ascorbic acid (vitamin C), vitamins A and E were used as a reference compounds. The absorbance was measured at 517 nm after 20 min of reaction. The % of DPPH decolouration of the sample was calculated according to the formula (Sharma and Bhat, [2009]).
Decolouration % = [1−(Abs SAMPLE/Abs CONTROL)]×100
The decolouration was plotted against the sample extract concentration and a logarithmic regression curve was established in order to calculate the IC50. The results are expressed as antiradical efficiency (AE), which is 1000-fold inverse of the IC50 value AE=1000/ IC50.

[3] = Ferric reducing antioxidant power (FRAP) assay; type: biochemical; conditions: for FRAP assay (C0.5FRAP): mean ± SD, n = 3, concentration equivalent to FeSO4 at 0.5 mmol/L, 37°C, 30 min, 593 nm; for FRAP potency compared with standard reference BHT: in words, BHT C0.5FRAP = 546.0 ± 13.6 μM
Method: The FRAP reagent was prepared by the addition of freshly prepared 20.0 mM FeCl3.6H2O solution, 10.0 mM of […] (TPTZ) solution and 300 mM sodium acetate buffer (pH 3.6) in a ratio of 1:1:10 (v/v/v). After that, Sample (our synthesized 2-oxo-2-phenylethylidenes-linked 2-oxo-benzo[1,4]oxazines 20a-ab) was added to 3 ml of freshly prepared FRAP reagent and this reaction mixture was incubated at 37°C temperature for 30 min. and the absorbance was measured at 593 nm. It is also noted that, a freshly prepared solution of FeSO4 was used for calibration of standard curve. The FRAP antioxidant capability were evaluated in terms of C0.5FRAP (the antioxidant capability of samples related to their concentration, which is equivalent to that of FeSO4 at 0.5 mmol/L) (Benzie and Strain, [1996]).
The FRAP assay was deliberated using the method as illustrated by Benzie and Strain (Benzie and Strain, [1996]). […] The reducing nature of an antioxidant depends on their property to donate a hydrogen atom for the breaking of the free radical chain, which is responsible for oxidative stress etc.

in vitro = type: cell-based; conditions: mouse, Cell viability (%)
Method: (§1) Cell toxicity of active C-3 tethered 2-oxo-benzo[1,4]oxazine analogs were accessed using 3T3 fibroblast cell lines in MTT assay via the reported protocol of Danihelová et al. ([2013]) [For details, see supporting information].
(§2) The cytotoxic effect of the active compounds prepared on cells was detected in vitro using the mitochondrial cytotoxic test according to Danihelová et al. (2013) with modifications. Cell viability was evaluated using thiazolyl blue tetrazolium bromide (MTT), which indicates the metabolic activity of cells. The experiment was performed in 96-well microplates. The cells were seeded at a density of 3.5×10^3 3T3 fibroblast cells per well. Samples were dissolved in DMSO (stock solution 10 […]
(§3) (concentration of DMSO 0.5%) and after 24 h they were added to the cells. Microplates were cultivated for 72 h in thermostat at 37 °C and 5% CO 2 atmosphere. After incubation thiazolyl blue tetrazolium bromide (3.33 mg/ml phosphate buffered saline, pH=7.4) was pipetted to each well and left to incubate for further two hours. Then the medium with MTT solution was removed. Formazan crystals in viable cells were dissolved in the lysis solution (4 mM HCl and 0.1% Nonidet P40 in ethanol). Microplates were shaken 15 min at 1500 rpm. Absorbance was measured at 540 nm and reference wavelength at 740 nm. Each value is the mean of 6 wells with standard deviation.
(§4) Inhibition activity was expressed as percentages of control with DMSO.

[4] = tested on: 3T3 fibroblast cell lines; test: in vitro; type: cell-based; conditions: mouse, 72 h, 250 μg/ml
Method: as §1, §2, §3, §4

[5] = ref Niemeyer, 2009, Adhikari et al., 2013, Glenska et al., 2015

Row | Structure (SMILES) | % DPPH-scavenging activity [1, 5] | IC50 (antioxidant activity) [1, 5] | % DPPH-scavenging activity ([1]; ref Sáncheza et al., 2014) | DPPH assay IC50 [2] | FRAP assay (C0.5FRAP) [3] | viability at 72 h, 25 μg/ml (in vitro) | viability at 72 h, 50 μg/ml (in vitro) | viability at 72 h, 100 μg/ml (in vitro) | viability at 72 h, 250 μg/ml (in vitro) | Cell viability (%) [4] | melting point | IC50 (antioxidant activity) ([1]; ref Harput et al., 2011) | FRAP potency compared with standard reference BHT [3]
1 | COc1ccc2c(c1)OC(O)C(=O)N2O (stereo not drawn) [Compound 1, DIMBOA] | 98.57% | 11.31 µg/mL (≈ 53.6 µM) |  |  |  |  |  |  |  |  |  |  | 
2 | O=c1[nH]c2ccccc2c(=O)o1 [Compound 4, 2H-benzo[d][1,3]oxazine-2,4(1H)-dione] |  |  | 17.2 ± 4.15% |  |  |  |  |  |  |  |  |  | 
3 | O=C1Oc2cc([N+](=O)[O-])ccc2N/C1=C\C(=O)c1ccc(F)cc1 [Compound 20x, (Z)-3-(2-(4-fluorophenyl)-2-oxoethylidene)-7-nitro-3,4-dihydro-2H-benzo[b][1,4]oxazin-2-one] |  |  |  | 10.18 ± 0.1 µg/mL | 628.6 ± 32.4 µM | 95.5% | 86.7% | 81.1% | > 65% | 73.91% | 235 to 237 °C |  | 
4 | O=C1Nc2ccccc2OC1O (stereo not drawn) [Compound 5, 2-Hydroxy-1,4-benzoxazin-3(4H)-one] |  |  |  |  |  |  |  |  |  |  |  | 39.29 µg/mL (≈ 238 µM) | 
5 | O=C1Oc2ccc([N+](=O)[O-])cc2N/C1=C\C(=O)c1ccc(F)cc1 [Compound 20u, (Z)-3-(2-(4-fluorophenyl)-2-oxoethylidene)-6-nitro-3,4-dihydro-2H-benzo[b][1,4]oxazin-2-one] |  |  |  | 32.1 ± 0.52 µg/mL | 424.5 ± 19.7 µM |  |  |  |  |  | > 250 °C |  | more potent than standard reference BHT
6 | O=C1Oc2ccc([N+](=O)[O-])cc2N/C1=C\C(=O)c1ccccc1 [Compound 20t, (Z)-6-nitro-3-(2-oxo-2-phenylethylidene)-3,4-dihydro-2H-benzo[b][1,4]oxazin-2-one] |  |  |  | 4.74 ± 0.08 µg/mL | 638.2 ± 32.6 µM | 89.7% | 80.5% | 74.9% | > 65% | 67.46% | 198 to 200 °C |  | less active than BHT
7 | COc1ccc(C(=O)/C=C2\Nc3ccccc3OC2=O)cc1 [Compound 20b, (Z)-3-[2-(4-methoxy-phenyl)-2-oxo-ethylidene]-3,4-dihydro-benzo [1, 4] oxazin-2-one] |  |  |  | 6.89 ± 0.07 µg/mL | 686.4 ± 30.8 µM | 92.1% | 88.4% | 80.7% | > 65% | 75.58% | 200 to 203 °C |  | 
